Test results taken from PubChem BioAssay (NCI).
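A five-concentration, 48-hour dose response in 96-well plates underlies each endpoint, interpolated linearly between surrounding concentrations. The concentration for 50% growth inhibition is given as GI50. TGI marks complete inhibition of growth.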

Assays:
Assay in all cases: DTP human tumour cell line panel, 48 h
A549 NSCLC = test system: A549 NSCLC
NCI-H460 lung = test system: NCI-H460 lung
NCI-H522 lung = test system: NCI-H522 lung
DLD-1 colon = test system: DLD-1 colon
SNB-78 CNS = test system: SNB-78 CNS
XF 498 CNS = test system: XF 498 CNS
KM20L2 colon = test system: KM20L2 colon
DMS 273 small cell lung = test system: DMS 273 small cell lung
HOP-18 NSCLC = test system: HOP-18 NSCLC
M19-MEL melanoma = test system: M19-MEL melanoma
DMS 114 small cell lung = test system: DMS 114 small cell lung
LXFL 529 NSCLC = test system: LXFL 529 NSCLC

Row | SMILES | TGI (A549 NSCLC) [µM] | TGI (NCI-H460 lung) [µM] | TGI (NCI-H522 lung) [µM] | also measured
1 | O=C(O)CSCc1cc2c(O)c(c1)Cc1cc(CSCC(=O)O)cc(c1O)Cc1cc(CSCC(=O)O)cc(c1O)Cc1cc(CSCC(=O)O)cc(c1O)C2 | > 100 | > 100 | > 100 | –
2 | Oc1ccc2c(c1)CCc1c-2n(CCN2CCOCC2)c2ccc(O)cc12 | – | > 100 | – | –
3 | CCN(CC)CCC(=O)c1ccc(Sc2ccc(F)cc2)cc1 | > 100 | 41.1 | 35.8 | –
4 | COc1cc(C(=O)/C=C/c2ccc(OCCSCCCCCCCCCCSCCOc3ccc(/C=C/C(=O)c4cc(OC)c(OC)c(OC)c4)cc3)cc2)cc(OC)c1OC | > 100 | – | > 100 | –
5 | COc1cc([C@@H]2c3cc4c(c(O)c3C[C@H]3COC(=O)[C@@H]32)OCO4)cc(OC)c1OC | – | – | – | GI50 (DLD-1 colon): 64.6 pM; GI50 (SNB-78 CNS): 11 pM; TGI (XF 498 CNS): 0.0887 µM; TGI (KM20L2 colon): 0.522 µM; TGI (DMS 273 small cell lung): 1.5 µM; GI50 (A549 NSCLC): 0.274 µM; GI50 (NCI-H460 lung): 0.0564 µM; TGI (HOP-18 NSCLC): 61.9 µM; GI50 (M19-MEL melanoma): 0.000137 µM; TGI (DMS 114 small cell lung): 1.5 µM; GI50 (NCI-H522 lung): 0.393 µM
6 | S=C(NNC1=NCCCCN1)Nc1ccc(Cl)cc1 | > 100 | > 100 | 42.3 | –
7 | O=C(c1cc2ccccc2[nH]1)N1C2CCC1CN(CCOC(c1ccc(F)cc1)c1ccc(F)cc1)CC2 (stereo not drawn) | > 100 | > 100 | > 100 | –
8 | O=[N+]([O-])c1ccc2nc(Cl)n[n+]([O-])c2c1 | 42.6 | 43.3 | 25.8 | –
9 | COC(=O)[C@H](Cc1ccccc1)NC(=O)/C(=C/C(C)C)NC(=O)[C@H](CCSC)NC=O | > 100 | > 100 | > 100 | TGI (LXFL 529 NSCLC): > 100 µM; TGI (DLD-1 colon): > 100 µM; TGI (XF 498 CNS): > 100 µM; TGI (KM20L2 colon): > 100 µM; TGI (DMS 273 small cell lung): > 100 µM; TGI (HOP-18 NSCLC): > 100 µM; TGI (M19-MEL melanoma): > 100 µM; TGI (DMS 114 small cell lung): > 100 µM
10 | c1ccc2c(CN3CCN(Cc4c[nH]c5ccccc45)CC3)c[nH]c2c1 | – | 25.3 | 31.3 | –
11 | COc1ccc(CC2C3=C(CCN2C(=O)C2CCC2)CC2(CC3)OCCO2)cc1O (stereo not drawn) | > 100 | > 100 | 38.3 | –
12 | CCN1CCCC(C#N)(c2ccccc2)CC1 (stereo not drawn) | > 100 | > 100 | – | –
13 | N#C[C@H](C(=O)c1ccccc1F)c1nc2ccccc2s1 | > 100 | 94.2 | 69.3 | –
14 | CCCCc1ccc(Nc2nc(Cl)c3ncn(COCCOC(C)=O)c3n2)cc1 | 51.2 | 32.9 | 42.9 | –
15 | C=CCNC(=S)N=Nc1c(O)n(CN2CCOCC2)c2ccc([N+](=O)[O-])cc12 | > 100 | > 100 | > 100 | –
16 | O=C(CC(CC(=O)Oc1c(Br)cc(Br)cc1C(=O)O)C(=O)Oc1c(Br)cc(Br)cc1C(=O)O)Oc1c(Br)cc(Br)cc1C(=O)O | > 100 | > 100 | 55.4 | TGI (LXFL 529 NSCLC): > 100 µM; TGI (DLD-1 colon): > 100 µM; TGI (SNB-78 CNS): > 100 µM; TGI (XF 498 CNS): 38.9 µM; TGI (KM20L2 colon): > 100 µM; TGI (DMS 273 small cell lung): > 100 µM; TGI (M19-MEL melanoma): > 100 µM; TGI (DMS 114 small cell lung): > 100 µM

Row | SMILES | TGI (A549 NSCLC) [µM] | TGI (NCI-H460 lung) [µM] | TGI (NCI-H522 lung) [µM] | also measured
17 | O=C1C(C(O)(C(F)(F)Cl)C(F)(F)Cl)CCCC1C(O)(C(F)(F)Cl)C(F)(F)Cl (stereo not drawn) | > 10 | > 10 | > 10 | –
18 | CCOc1ccc(N/C(=C(/C(Cl)=C(/Cl)Nc2ccccc2)[N+](=O)[O-])n2nnc3ccccc32)cc1 | > 100 | > 100 | 39.5 | –
19 | CCCC(=O)Nc1cc(/C=C/C(=O)N2CC(CCl)c3c2cc(OCc2ccccc2)c2[nH]cc(C)c32)n(C)c1 (stereo not drawn) | – | 0.0588 | 0.0267 | –
20 | CC(C)C1OC(N)=C(C#N)C1(C#N)C#N (stereo not drawn) | > 100 | – | > 100 | –
21 | CCCC(=O)NC(Nc1cc(C)ccn1)(C(=O)OCC)C(F)(F)F (stereo not drawn) | > 100 | – | > 100 | –
22 | O=C1NC(=S)N/C1=C\c1cc2c(=O)c3ccccc3sc2s1 | – | > 100 | > 100 | –
23 | Cc1[nH]c(=O)nc2c1C(NCCCN(C)C)c1cc(Cl)ccc1N2 (stereo not drawn) | 28.1 | 29 | 28.5 | TGI (LXFL 529 NSCLC): 30.6 µM; TGI (DLD-1 colon): 35.3 µM; TGI (SNB-78 CNS): 33.2 µM; TGI (XF 498 CNS): 30.8 µM; TGI (KM20L2 colon): 24.4 µM; TGI (DMS 273 small cell lung): 25.3 µM; TGI (M19-MEL melanoma): 12.9 µM; TGI (DMS 114 small cell lung): 28.2 µM
24 | C=C1CCCC2[C@](C)(CC3=C(Cl)C(=O)C=C(OC)C3=O)C(C)CC[C@]12C (stereo partly drawn) | 11.1 | 19.4 | 3.18 | –
25 | O=C1c2cccnc2S(=O)(=O)N1c1ccc(Oc2ccccc2)cc1 | > 100 | > 100 | > 100 | –
26 | CC1=NN(C(=O)c2ccccc2O)C(=O)/C1=C/c1cccc(O)c1 | > 100 | > 100 | > 30.7 | TGI (LXFL 529 NSCLC): > 100 µM; TGI (DLD-1 colon): > 100 µM; TGI (SNB-78 CNS): > 100 µM; TGI (XF 498 CNS): > 100 µM; TGI (KM20L2 colon): > 100 µM; TGI (M19-MEL melanoma): > 100 µM
27 | COC(=O)c1c(C)cccc1C1CN=NC12Cc1ccccc1C2=O (stereo not drawn) | > 100 | > 100 | > 100 | –
28 | c1cnn(C23C4C5C6C4C2C6C53)c1 (stereo not drawn) | > 100 | > 100 | > 100 | –
29 | CCCCCC1CC=CC(=O)O1 (stereo not drawn) | 65.8 | 33.6 | 9.71 | –
30 | CC(=O)OC(CN1CCN(c2ccccn2)CC1)Cn1sc2nc(C)cc(C)c2c1=O (stereo not drawn) | 45.8 | 35.2 | 22.7 | –
31 | CC(=O)OC1CC2CCN3C(=O)c4cc5c(cc4[C@H](C1OC(C)=O)C23)OCO5 (stereo partly drawn) | > 100 | > 100 | > 100 | TGI (LXFL 529 NSCLC): > 100 µM; TGI (DLD-1 colon): > 100 µM; TGI (SNB-78 CNS): > 100 µM; TGI (KM20L2 colon): > 100 µM; TGI (DMS 273 small cell lung): > 100 µM; TGI (M19-MEL melanoma): > 100 µM
